Measurements published in patent US4719231A, “3-[N-(mercaptoacyl)]amino-4-arylbutanoic acid derivatives and an analgesic agent comprising the same” (Zaidan Hojin Biseibutsu Kagaku Kenkyu Kai, priority 1984, dated 1988).
“And” between values parts separate entries of the source, which are not always exact repeats. Equal values may be shown once.

Assays:
enkephalinase = molecular target: T1, enkephalinase (Rattus norvegicus, UniProt P07861); test: Inhibitory activity against enkephalinase; assay type: biochemical; conditions: enkephalinase from corpus striatum of rat brain; substrate methionine-enkephaline; pH 7.7; 1 hour at 37° C.
T1 construct: A preparation of enkephalinase was made by homogenizing corpus striatum of rat brain and by partial purification of the brain homogenate; from tissue; host or cells: rat brain corpus striatum, homogenized and partially purified
T1 sequence (P07861 1-750): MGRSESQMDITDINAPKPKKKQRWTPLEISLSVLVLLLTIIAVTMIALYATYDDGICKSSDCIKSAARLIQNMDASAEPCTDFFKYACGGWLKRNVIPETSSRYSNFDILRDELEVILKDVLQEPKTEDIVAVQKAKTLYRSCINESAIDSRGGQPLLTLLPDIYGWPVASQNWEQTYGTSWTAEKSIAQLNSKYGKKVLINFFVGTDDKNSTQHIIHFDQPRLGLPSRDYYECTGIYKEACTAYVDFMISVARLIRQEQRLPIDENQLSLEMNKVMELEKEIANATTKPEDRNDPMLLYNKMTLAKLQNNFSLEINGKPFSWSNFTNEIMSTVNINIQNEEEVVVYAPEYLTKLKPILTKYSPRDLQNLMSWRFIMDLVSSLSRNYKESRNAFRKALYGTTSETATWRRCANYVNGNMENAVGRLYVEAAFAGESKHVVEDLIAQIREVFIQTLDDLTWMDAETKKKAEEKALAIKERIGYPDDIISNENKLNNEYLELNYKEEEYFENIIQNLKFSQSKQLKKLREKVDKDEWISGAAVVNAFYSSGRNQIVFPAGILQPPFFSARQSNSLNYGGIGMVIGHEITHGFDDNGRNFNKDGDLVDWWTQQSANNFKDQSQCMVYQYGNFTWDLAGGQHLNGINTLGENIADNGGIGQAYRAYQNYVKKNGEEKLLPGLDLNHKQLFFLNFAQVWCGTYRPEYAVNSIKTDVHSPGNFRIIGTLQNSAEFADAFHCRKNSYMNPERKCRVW
Method: Inhibitory activity against enkephalinase
A preparation of enkephalinase was made by homogenizing corpus striatum of rat brain and by partial purification of the brain homogenate according to the method of Gorenstein et al (see: the "Life Science" vol. 25, 2065~2070 (1979)).
A test compound as identified in Table 1 below was dissolved in a mixture of Tris-hydrochloride buffered solution (pH 7.7) and an aqueous 1% Triton×100 (an active surfactant) to such a concentration that the added quantity of the test compound amounted to one-tenth of the volume of said mixture. To the solution of the test compound so prepared was added the enkephalinase, followed by incubation for 5 minutes at ambient temperature and the resulting mixture was admixed with methionine-enkephaline as the substrate. The reaction mixture so prepared was incubated for 1 hour at 37° C. and then subjected to a high-performance liquid chromatography in such a manner that the Tyr-Gly-Gly (a fragment of the methionine-enkephaline) formed by the enzymatic degradation of the methionine-enkephaline was isolated and the quantity of Tyr-Gly-Gly was determined by an electro-chemical detector. In this way, IC50 value of the test compound, namely, the dose of the test compound required for 50% inhibition of the enkephalinase was measured.

[1] = Analgesic activity by the acetic acid-writhing method; assay type: in vivo, mouse (ddy-strain); conditions: mice, *P < 0.05, **P < 0.01
Method: Analgesic activity of test compound as estimated according to the acetic acid-writhing method
Mice of ddy-strain (body weight 20 to 25 grams) were employed as the test animal. A suspension of the compound under test was subcutaneously injected in such a manner that said suspension as injected into each mouse provides the dosage of 30 mg/kg or 300 mg/kg of the test compound. 30 Minutes after the administration, an aqueous solution of 0.6% of acetic acid was injected intraperitoneally into the mice at a volume of 0.1 ml per 10 g of the body weight. 5 Minutes after the injection of the aqueous acetic acid, the estimation was commenced to count the number of the writhing reaction of the treated mice (the motions such as abdominal constrictions and extensions of the treated mice as induced by the injection of acetic acid) which took place for the subsequent 15 minutes.
The rate (%) of suppression of the writhing reaction by the test compound was evaluated according to the following equation: [formula]

[2] = Effect of enhancing the analgesia by DAME, tail-flick latency method; assay type: in vivo, rat; conditions: rats; for Enhancement in the analgesia by DAME: DAME 10 μg + test compound 30 μg relative to DAME 10 μg; for M.P.E. DAME 10 μg + Test Compound 30 μg: n = 3 - 4, **P < 0.01; for M.P.E. Test compound 30 μg: test compound 30 μg alone, n = 3 - 4
Method: Effect of enhancing the analgesia by [D-ala^2,met^5 ]enkephaline (abbreviated as DAME)
A known analgesic compound, DAME and the particular compound under test of this invention were administered into the brain of the test rats by puncture of cerebroventride.
Thus, the test compound was administered into the brain of the rats using a metal cannula of 400 μm in external diameter which had been inserted into the ventriculus lateralis cerebri in a brain region of 3.2 mm anterior from the bregma, 0 mm from the central line and 0.7 mm in depth, of the brain. [see "L. J. Pellegrino and A. J. Cushman; A Stereotaxic Atras of the Rat Brain. Appleton-Century-Crofts, Division of Meredith Publishing Co., New York, (1967)"]. The test for the estimation was commenced at such a time after 48 hours or more later than the end of the surgical operation when the test rats were deemed as having recovered from the damages induced by the surgical operation. Analgesia tests were conducted using the rats having been closely restrained in a wire mesh cage, according to the tail-flick latency method (see: Hachisu et al., Life Sciences, 30, 1739-1746 (1982)). Analgesic activity was evaluated in term of the value of percentage of increase in the tail-flick latency time of the test rats receiving the test compound, as compared with the control rats receiving no test compound. The power of the radiant heat source was adjusted to give a tail-flick latency value (as the control value) of about 2 seconds for the rats before the administration of the test compound.
The cut-off of 7 seconds was used in order to prevent the tail tissues from being damaged by the heat. The maximal percent effect (M.P.E) of the tail-flick latency test was calculated according to the following equation: [formula]

[3] = into the brain (cerebroventricle)

Molecule: N[C@H](Cc1ccccc1)[C@H](O)C(=O)O [(2S,3R)-AHPA, 3-amino-2-hydroxy-4-phenylbutanoic acid, reference compound]
- IC50 (enkephalinase): 14000 µM

Molecule: CC(=O)SCC(=O)N[C@H](Cc1ccccc1)[C@H](O)C(=O)O [(2S,3R)-N--(AcSCH2 CO)--AHPA, (2S,3R)-3-[N-(acetylthioacetyl)]amino-2-hydroxy-4-phenylbutanoic acid]
- Rate of suppression (%) (average value ± S.E.) ([1]; 30 mg/kg subcutaneous): 33.7 ± 13.5%
- Rate of suppression (%) (average value ± S.E.) ([1]; 300 mg/kg subcutaneous): 33.3 ± 13.4%
- Enhancement in the analgesia by DAME [2]: 617.2
- M.P.E. DAME 10 μg + Test Compound 30 μg [2, 3]: 100 ± 0%
- M.P.E. Test compound 30 μg [2, 3]: 13.1 ± 6.0%
- IC50 (enkephalinase): 50 µM

Molecule: CC(=O)SCC(=O)N[C@H](Cc1ccccc1)[C@H](O)C(=O)NCC(=O)O [(2S,3R)-N--(AcSCH2 CO)--AHPA--Gly, N-{(2S,3R)-3-[N-(acetylthioacetyl)]amino-2-hydroxy-4-phenylbutanoyl}glycine]
- IC50 (enkephalinase): > 300 µM

Molecule: CC(=O)SCC(=O)N[C@H](Cc1ccccc1)[C@H](O)C(=O)N[C@@H](CC(C)C)C(=O)O [(2S,3R)-N--(AcSCH2CO)--AHPA--L-Leu, N-{(2S,3R)-3-[N-(acetylthioacetyl)]amino-2-hydroxy-4-phenylbutanoyl}-L-leucine]
- IC50 (enkephalinase): > 300 µM

Molecule: O=C(CCSC(=O)c1ccccc1)N[C@H](Cc1ccccc1)[C@H](O)C(=O)O [(2S,3R)-N--(BzSCH2 CH2 CO)--AHPA, (2S,3R)-3-[N-(3-benzoylthiopropionyl)]amino-2-hydroxy-4-phenylbutanoic acid]
- IC50 (enkephalinase): > 300 µM

Molecule: CC(SC(=O)c1ccccc1)C(=O)N[C@H](Cc1ccccc1)[C@H](O)C(=O)O (stereo partly drawn) [(2S,3R)-N--(BzSCH(Me)CO)--AHPA, (2S,3R)-3-[N-(2-benzoylthiopropionyl)]amino-2-hydroxy-4-phenylbutanoic acid]
- IC50 (enkephalinase): > 300 µM

Molecule: O=C(CS)N[C@H](Cc1ccccc1)[C@H](O)C(=O)O [(2S,3R)-N--(HSCH2 CO)--AHPA, (2S,3R)-3-[N-(mercaptoacetyl)]amino-2-hydroxy-4-phenylbutanoic acid]
- Rate of suppression (%) (average value ± S.E.) ([1]; 30 mg/kg subcutaneous): 12.5 ± 14.7%
- Rate of suppression (%) (average value ± S.E.) ([1]; 300 mg/kg subcutaneous): 36.5 ± 10.5%
- IC50 (enkephalinase): 3 µM

Molecule: N[C@@H](CS)C(=O)N[C@H](Cc1ccccc1)[C@H](O)C(=O)O [(2S,3R)-N--(L-Cys)--AHPA, (2S,3R)-3-(N-L-Cysteinyl)amino-2-hydroxy-4-phenylbutanoic acid]
- Rate of suppression (%) (average value ± S.E.) ([1]; 30 mg/kg subcutaneous): 56.5 ± 9.9%
- Rate of suppression (%) (average value ± S.E.) ([1]; 300 mg/kg subcutaneous): 47.9 ± 11.9%
- Enhancement in the analgesia by DAME [2]: 604.2
- M.P.E. DAME 10 μg + Test Compound 30 μg [2, 3]: 87.0 ± 13.0%
- M.P.E. Test compound 30 μg [2, 3]: 10.0 ± 5.2%
- IC50 (enkephalinase): 40 µM

Molecule: CC(=O)SCC(=O)N[C@@H](Cc1ccccc1)[C@H](O)C(=O)O [(2S,3S)-N--(AcSCH2 CO)--AHPA, (2S,3S)-3-[N-(acetylthioacetyl)]amino-2-hydroxy-4-phenylbutanoic acid]
- IC50 (enkephalinase): 300 µM

Molecule: O=C(CS)N[C@@H](Cc1ccccc1)[C@H](O)C(=O)O [(2S,3S)-N--(HSCH2 CO)--AHPA, (2S,3S)-3-[N-(mercaptoacetyl)]amino-2-hydroxy-4-phenylbutanoic acid]
- IC50 (enkephalinase): 20 µM

Molecule: [D-ala^2,met^5 ]enkephaline [DAME, reference compound]
- M.P.E. DAME 10 μg ([2]; DAME 10 μg alone, into the brain (cerebroventricle), n = 3 - 4, *P < 0.05): 16.2 ± 3.9% and 14.4 ± 4.2%
